Measured values: patent publication US20230069712A1, “COMPOUNDS FOR THE INDUCTION OF ANTIGEN-SPECIFIC IMMUNE TOLERANCE” (Anokion SA, priority 2019, published 2023)
No end group written: not given here.

Test system: multiple sclerosis pathology (EAE disease)
Assay: Mouse experimental autoimmune encephalomyelitis (EAE) model
Assay type: in vivo, mice
Conditions: intravenous injection on day 0, 3, and 6; adoptive transfer of MOG35-55-reactive T cells
Description: Myelin oligodendrocyte glycoprotein (MOG) 30-60 is a fragment of an autoantigen that is associated with multiple sclerosis that is used herein as a non-limiting example of an immunogenic fragment of MOG. […] To induce multiple sclerosis pathology (EAE disease), recipient mice were adoptively transferred on day 0 with MOG35-55-reactive T cells obtained from a separate, previously-vaccinated donor mouse. On day 0, 3, and 6, mice received via intravenous injection of either MOG30-60 peptide, MOG-30-60 peptide chemically conjugated to pGal (LT-MOG-30-60), or saline; an additional control group received administrations of a monoclonal antibody that binds VLA-4 (integrin alpha 4 beta 1). Multiple sclerosis pathology was assessed and scored daily by a pharmacology expert blinded to group identities. […] It shall be appreciated that, according to additional embodiments disclosed herein, other immunogenic fragments of MOG are effective in inducing tolerance to MOG, and thus treatment of MS.

| Substance | protection from multiple sclerosis pathology (EAE disease), daily score |
| --- | --- |
| MOG30-60: Myelin oligodendrocyte glycoprotein (MOG) 30-60 peptide, SEQ ID NO: 30, administered alone (KNATGMEVGWYRSPFSRVVHLYRNGKDQDAE; MOG 30-60; listed as Homo sapiens) | not substantively protected from disease |
| pGal-MOG30-60: MOG-30-60 peptide chemically conjugated to pGal (e.g., Polymer B) (KNATGMEVGWYRSPFSRVVHLYRNGKDQDAE; also: chemically conjugated to pGal polymer (e.g. Polymer B), site not given here; UniProt Q61885 58-88, looked up, fragment) | protected from multiple sclerosis pathology (EAE disease) |
